Results reported in PubChem BioAssay (NCI).
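Five compound concentrations were applied to cells in 96-well plates for 48 hours; endpoints were derived by simple linear interpolation of the resulting dose-response curve. The concentration for 50% growth inhibition is given as GI50. TGI is the concentration that stops growth completely.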

What was measured:
Experiment in all cases: DTP human tumour cell line panel, 48 h
CAKI-1 renal = test system: CAKI-1 renal
HT29 colon = test system: HT29 colon
A549 NSCLC = test system: A549 NSCLC
HCT-15 colon = test system: HCT-15 colon
OVCAR-4 ovarian = test system: OVCAR-4 ovarian
MOLT-4 leukemia = test system: MOLT-4 leukemia
NCI-H460 lung = test system: NCI-H460 lung
SW-620 colon = test system: SW-620 colon
COLO 205 colon = test system: COLO 205 colon
M14 melanoma = test system: M14 melanoma

Structure (SMILES) | TGI (CAKI-1 renal) [µM] | TGI (HT29 colon) [µM] | TGI (A549 NSCLC) [µM] | TGI (HCT-15 colon) [µM] | TGI (OVCAR-4 ovarian) [µM] | TGI (MOLT-4 leukemia) [µM] | TGI (NCI-H460 lung) [µM] | TGI (SW-620 colon) [µM] | TGI (COLO 205 colon) [µM] | TGI (M14 melanoma) [µM] | GI50 (HT29 colon) [µM] | GI50 (OVCAR-4 ovarian) [µM] | GI50 (M14 melanoma) [µM]
Clc1ccc2oc(CCc3ccccc3)nc2c1 | > 100 | > 100 | > 100 | > 100 | > 100 | > 100 | > 100 | > 100 | > 100 | > 100 |  |  | 
CC(C)(C)OC(=O)NCCCCC(N)NC(=O)c1ccccc1 (configuration not stated) | > 100 | > 100 | > 100 | > 100 | > 100 | > 100 | > 100 | > 100 | > 100 | > 100 |  |  | 
CC(C)/C(Cl)=N/OC(=O)Nc1ccc(Cl)c(Cl)c1 | 3.17 | 13 | 43.4 | 5.59 | 22.5 | 6.2 | 34 | 4.35 | 3.39 | 6.52 |  |  | 
COc1cc(Oc2nc3ccc(C(F)(F)F)cc3nc2-c2ccccc2)cc(OC)c1OC | 17.3 | > 100 | 49.7 | > 100 | 26.3 |  | > 100 |  | > 100 |  |  |  | 
O=C1N[C@@H]2C(=C[C@H](O)[C@@H](O)[C@H]2O)c2cc3c(c(O)c21)OCO3 | 0.0735 | 0.172 | 0.306 | 8.16 | 0.537 | 0.296 | 0.119 | 2.67 |  |  |  |  | 
C=C(C)[C@@H]1CC[C@]2(C(=O)OC)CC[C@]3(C)[C@H](CC[C@@H]4[C@@]5(C)CC[C@H](O)C(C)(C)[C@@H]5CC[C@]43C)[C@@H]12 | 39.6 | 60 | 37.7 | 50.6 |  | 44.6 | 38.4 | 38.8 |  | > 100 |  |  | 
CN(C)CCNC(=O)c1cccc2c(NC(CCC(N)=O)C(=O)O)c3ccccc3nc12 (configuration not stated) | > 100 | 41.7 | 64.6 | 22.5 | 60.6 | 71.3 | 54.9 | > 100 | 19.8 | 27.5 |  |  | 
COc1cccc(C2c3cc4c(cc3OC3COC(=O)C32)OCO4)c1OC (configuration not stated) | > 100 | > 100 | > 100 | > 100 | > 100 | > 100 | > 100 | > 100 | > 100 | > 100 |  |  | 
CSc1c(C#N)c(N)n(-c2ccc(Cl)cc2)c(=O)c1C#N | > 100 | > 100 | > 100 | > 100 | > 100 | > 100 | > 100 | > 100 | > 100 | > 100 |  |  | 
COc1ccc2c3c1O[C@H](c1ccc(O)cc1)[C@H]3[N+](C)(C)CC2 | > 100 | > 100 | > 100 | > 100 | > 100 | > 100 | > 100 | > 100 | > 100 | > 100 |  |  | 
C[N+](C)(C)c1ncnc2c1ncn2C1CCCO1 (configuration not stated) |  | > 100 | > 100 | > 100 | > 100 | > 100 | > 100 | > 100 | > 100 | > 100 |  |  | 
COc1ccc(C2=NOC(N)(c3ccc(OC)cc3)C2)cc1 (configuration not stated) | > 100 | > 100 | > 100 | > 100 | > 100 | > 100 | > 100 | > 100 | > 100 | > 100 |  |  | 
CCOC(=O)c1c[nH]c2ccc3c(c2c1=O)S(=O)(=O)CC3 (tested in a mixture with another compound) | > 100 | > 100 | > 100 | > 100 | > 100 | > 100 | > 100 | > 100 | > 100 |  |  |  | 
CN(C)CCc1c2c(nc3ccccc13)C(=O)c1cccnc1C2=O | 4.62 | 8.35 | 3.2 | 0.927 | 2.79 | 6.71 | 0.5 | 1.91 | 4.91 | 0.4 |  |  | 
CCCn1c(=O)c(N2CCN(c3ccccc3)CC2)nc2sc3ccccc3c21 | > 100 | > 100 | > 100 | > 100 | > 100 | > 100 | > 100 | > 100 | > 100 | > 100 |  |  | 
O=c1[nH]c(Nc2nc3ccccc3[nH]2)nc(O)c1Cc1ccccc1 | > 100 | > 100 | > 100 | > 100 | > 100 | > 100 | > 100 | > 100 | > 100 | > 100 |  |  | 
COc1cc(O)c2c(=O)c(OC)c(-c3ccc(OC)c(OC)c3)oc2c1 | 57.1 | > 100 | > 100 | > 100 | > 100 |  | > 100 | > 100 | > 100 | > 100 | > 100 | 61.8 | > 100

Structure (SMILES) | TGI (CAKI-1 renal) [µM] | TGI (HT29 colon) [µM] | TGI (A549 NSCLC) [µM] | TGI (HCT-15 colon) [µM] | TGI (OVCAR-4 ovarian) [µM] | TGI (MOLT-4 leukemia) [µM] | TGI (NCI-H460 lung) [µM] | TGI (SW-620 colon) [µM] | TGI (COLO 205 colon) [µM] | TGI (M14 melanoma) [µM] | GI50 (HT29 colon) [µM] | GI50 (OVCAR-4 ovarian) [µM] | GI50 (M14 melanoma) [µM]
CN1CCN(c2ccc3c(c2)NCC(=O)N3)CC1 | > 100 | > 100 | > 100 | > 100 | > 100 | > 100 | > 100 | > 100 | > 100 | > 100 |  |  | 
CN1CCN(P2(=S)Oc3ccc4ccccc4c3-c3c(ccc4ccccc34)O2)CC1 | > 67.5 | 49.8 | > 100 | > 100 | > 100 | 46.2 | 42.1 | > 100 | 28.8 |  |  |  | 
Cn1c(=O)n2n(c1=O)C(C)(C13CC4CC(CC(C4)C1)C3)C13CC4CC(CC1C4)CC23 (configuration not stated) | > 100 | > 100 | > 100 | > 100 |  | > 100 | > 100 | > 100 | > 100 | > 100 |  |  | 
O=C(O)c1ccccc1N=Nc1c(O)c(S(=O)(=O)O)cc2cc(S(=O)(=O)O)ccc12 | > 100 | > 100 | > 100 | > 100 |  | > 100 | > 100 | > 100 | > 100 | > 100 |  |  | 
O=C1Cc2c([nH]c3ccc(C(=O)O)cc23)-c2ccccc2N1 | > 100 | > 100 | > 100 | > 100 | > 100 | > 100 | > 100 | > 100 | > 100 | > 100 |  |  | 
OC(c1cccnc1Cl)c1nc2ccccc2c2ccnc(Cl)c12 (configuration not stated) | > 100 | > 100 | > 100 | > 100 | > 100 | > 100 | > 100 | > 100 | > 100 | > 100 |  |  | 
COc1cc(CNc2nc3ccccc3nc2C(=O)O)cc(OC)c1OC | > 100 | > 100 | > 100 | > 100 | > 100 | > 100 | > 100 | > 100 | > 100 |  |  |  | 
CCN(CC)C1Oc2cc3c(cc2C(c2cccc(OC)c2OC)C1C)OCO3 (configuration not stated) | 14.2 | 24.8 | 25.8 | > 100 |  | 23.7 | 17.7 | 77 | 17 | 46.7 |  |  | 
O=[N+]([O-])c1ccc(C(O)(C#CCN2CCCC2)c2ccccc2)cc1 (configuration not stated) |  | 34 | > 100 | > 100 | > 100 | 64.4 | > 100 | > 100 | 37.8 | 33.6 |  |  | 
CC[C@@]1(O)C(=O)OCc2c1cc1n(c2=O)Cc2c-1nc1ccccc1c2/C=N\NC(=O)C(N)CCSC (some centres not stated) |  |  | 3.19 | > 90.3 | 3.24 |  | 0.624 | > 41.1 | 18.5 | 0.473 |  |  | 
COC(=O)C(=O)Cc1nc2ccccc2o1 |  | > 100 |  | > 100 | > 100 | > 100 | > 100 |  |  | > 100 |  |  | 
N#CCCC1(CCC#N)CCCCCCCCC(CCC#N)(CCC#N)C(O)C1O (configuration not stated) | > 100 | > 100 | > 100 | > 100 | > 100 |  | > 100 | > 100 | > 100 | > 100 |  |  | 
CC(C)(CCC(C)(C)N1OC1c1ccccc1)N1OC1c1ccccc1 (configuration not stated) | 60.3 | > 100 | > 100 | > 100 | > 100 |  | > 100 | > 100 | > 100 |  |  |  | 
O=c1[nH]c2nc3ccccc3c(=O)n2/c1=C/c1ccco1 | > 100 | > 100 | > 100 | > 100 | > 100 | > 100 |  | > 100 | > 100 | > 100 |  |  | 
CN=C(Nc1cccc(C(F)(F)F)c1)SCc1ccc(N=C=S)cc1 | 30.4 | 31.2 | 37.5 | 20.8 | 26.8 | 36 | 26.4 | 41 | 30.6 |  |  |  | 
CCN(CCN(CC)C(=O)Nc1ccccc1)C(=O)Nc1ccccc1 |  | > 100 | > 100 | > 100 |  | > 100 | > 100 | > 100 | > 100 | > 100 |  |  | 
O=NN(CCF)C(=O)NC1CCSCC1 | > 100 | > 100 | > 100 | > 100 | > 100 | > 100 | > 100 | > 100 | > 100 |  |  |  | 
